Data set [1] in a line: Evaluation of release of active component in vivo (chewing by volunteers, residue analysed). Also noted: species or system human. As to conditions: for Caffeine released in vivo (average): average of 3 volunteers. Here is the method:
To establish the release of active component from the chewing gum, the tablets were tested by a panel of 3 volunteers. For each test, the volunteer was asked to chew one piece of gum for a set time. After that time the gum was ground, and the active component content analysed. The in vivo tests were conducted with the following chewing times: 5, 10, 15, 20, 30 and 40 minutes. The gum residue was weighed, frozen and finely ground. An exactly weighed amount of this powder was then subjected to the dissolution test according to the American Pharmacopoeia, using 1000 mL of water at 37° as dissolving fluid, and a paddle at 100 rpm. The test was performed by the spectrophotometry method, operating at 273 nm. The amount of active component released in vivo was determined by subtracting the amount of caffeine in the residue from the amount present in the pharmaceutical form.

Data set [2] is described as follows: Dissolution test according to the American Pharmacopoeia (paddle, 100 rpm, 1000 mL water, 37°). Format: physicochemical. Here is the method: The tablets were then subjected to the dissolution test according to the American Pharmacopoeia method, using 1000 mL of water at 37° as dissolving fluid and a paddle at 100 rpm. The test was performed by the spectrophotometry method, operating at 280 nm.

Where [3] appears, read: Example 3 tablet, chewing time 5 minutes.
Setting [4] is: Example 3 tablet, chewing time 10 minutes.
[5] abbreviates: Example 3 tablet, chewing time 15 minutes.
Where [6] appears, read: Example 3 tablet, chewing time 20 minutes.
Setting [7] is: Example 3 tablet, chewing time 30 minutes.
[8] abbreviates: Example 3 tablet, chewing time 40 minutes.
The mark [9] stands for this setting: Example 5 four-layer tablets (50 mg levodopa, 12.5 mg carbidopa), time 0 min.
Setting [10] is: Example 5 four-layer tablets, time 5 min.
Where [11] appears, read: Example 5 four-layer tablets, time 15 min.
Setting [12] is: Example 5 four-layer tablets, time 20 min.
The mark [13] stands for this setting: Example 5 four-layer tablets, time 25 min.
The mark [14] stands for this setting: Example 5 four-layer tablets, time 30 min.
The mark [15] stands for this setting: Example 5 four-layer tablets, time 35 min.
The mark [16] stands for this setting: Example 5 four-layer tablets, time 40 min.

Structures are written as SMILES.

Turning to `Cn1c(=O)c2c(ncn2C)n(C)c1=O` [Caffeine], the “Caffeine released in vivo, Volunteer 2” value is 77.02% in data set [1] (setting [3]); 83.66% in data set [1] (setting [4]); 90.97% in data set [1] (setting [5]); 91.58% in data set [1] (setting [6]); 92.25% in data set [1] (setting [7]); 93.34% in data set [1] (setting [8]). The “Caffeine released in vivo, Volunteer 3” value in data set [1] (setting [3]) is given as 75.07%; in data set [1] (setting [4]), 84.94%; in data set [1] (setting [5]), 91.07%; in data set [1] (setting [6]) it was 89.61%; in data set [1] (setting [7]), 92.49%; in data set [1] (setting [8]), 92.34%. The “Caffeine released in vivo (average)” value is 74.54% in data set [1] (setting [3]); 84.88% in data set [1] (setting [4]); 90.74% in data set [1] (setting [5]); 90.21% in data set [1] (setting [6]); 92.89% in data set [1] (setting [7]); 92.82% in data set [1] (setting [8]). Besides, the “Caffeine released in vivo, Volunteer 1” value is reported as 86.03% in data set [1] (setting [4]); 90.18% in data set [1] (setting [5]); 89.45% in data set [1] (setting [6]); 93.92% in data set [1] (setting [7]); 92.79% in data set [1] (setting [8]); 71.52% in data set [1] (Example 3 three-layer chewing gum tablet, 10 mg caffeine, chewing time 5 minutes).
Turning to `N[C@@H](Cc1ccc(O)c(O)c1)C(=O)O` [levodopa, Levodopa], the “percentage released by the tablets” value in data set [2] (setting [9]) stood at 0.00%; in data set [2] (setting [10]), 63.52%; in data set [2] (setting [11]), 90.00%; in data set [2] (setting [12]), 92.47%; in data set [2] (setting [13]) it was 94.04%; in data set [2] (setting [14]), 94.90%. The “percentage released by the tablets” value stood at 95.66% in data set [2] (setting [15]) and 96.28% in data set [2] (setting [16]).
With `C[C@@](Cc1ccc(O)c(O)c1)(NN)C(=O)O` [carbidopa, Carbidopa], the “percentage released by the tablets” value came out at 0.00% in data set [2] (setting [9]); 78.23% in data set [2] (setting [10]); 92.63% in data set [2] (setting [11]); 94.97% in data set [2] (setting [12]); 96.55% in data set [2] (setting [13]); 98.18% in data set [2] (setting [14]). Further, the results for the “percentage released by the tablets” value in data set [2] (setting [15]) and in data set [2] (setting [16]) were 98.77% and 100.00%, respectively.

These data come from patent US9216157B2, “Chewing gum in the form of multi-layer tablets” (Jagotec AG, priority 2003, dated 2015).
